In patent publication US20260137689A1, “INTEGRATION OF MOLECULAR MECHANISMS IN THE STRIATUM AS A COMBINATION DRUG STRATEGY FOR THE TREATMENT OF PSYCHIATRIC AND NEUROLOGICAL DISORDERS IN WHICH ANHEDONIA OR MOTIVATION-RELATED DYSFUNCTION EXISTS” (Alto Neuroscience, Inc., priority 2021, published 2026):
Read-outs that look alike come from different tables or passages of the source.

What was measured:
C57/BL6 mice = assay: Forced swim test; assay type: in vivo; settings: FIG. 2 doses: imipramine 20 mg/kg, istradefylline 0.1 mg/kg, varenicline 0.17 mg/kg, alone or combined
Experimental: FIG. 2 is a bar graph of the time during a forced swim test after treatment with saline, 20 mg/kg for imipramine, 0.1 mg/kg for istradefylline, 0.17 mg/kg for varenicline, and a combination of 0.1 mg/kg for istradefylline and 0.17 mg/kg for varenicline.
Without being bound by a particular theory, the inventors theorized that an increase in dopamine release, when coupled with A2A antagonism, could result in an antidepressant response-essentially aiming to replace direct D2 agonism with a drug that leads to its release and to an increase in D2/D3 receptor availability. […] Of note, however, varenicline has been approved in humans for smoking cessation, and initially carried a black box for increased risk for development of depression, a seemingly opposite outcome to our goal. To determine whether such a combination is viable, we conducted forced swim tests in C57/BL6 mice. […] One such example is 5 mg-40 mg of istradefylline together with 0.25-3 mg of varenicline.
To determine whether such a combination is viable, forced swim tests in C57/BL6 mice were conducted. The forced-swim test is used to assess depressive-like behavior in mice. The time spent immobile is considered a measure of depressive-like behavior. Immobility scores for each mouse were determined by manual scoring.

[1] = tested on: release of gamma-aminobutyric acid (GABA); settings: cited from earlier work
dopamine release [2] = settings: rodents (ref. 43); cited from earlier work
D2/D3 receptor = settings: rodents (refs. 45, 46); cited from earlier work
Parkinson's models = Parkinson's models (ref. 47); cited from earlier work
dopamine release [3] = settings: humans (ref. 44); cited from earlier work
D2 receptor = settings: striatal slices from reserpinized rats (ref. 33); cited from earlier work

CN(C)CCCN1c2ccccc2CCc2ccccc21 [imipramine]
antidepressant response (time spent immobile) in forced swim test (C57/BL6 mice): decrease in immobility

NC(C(=O)O)c1cc(O)ccc1Cl (racemic) [CHPG, (RS)-2-chloro-5-hydroxyphenylglycine]
effect on GABA release by itself ([1]; alone (ref. 38)): ineffective by itself | effect on quinpirole-induced change of neuronal activity (GABA release) ([1]; with the D2/D3 agonist quinpirole (ref. 38)): able to counteract the effects

c1cnc2cc3c(cc2n1)[C@@H]1CNC[C@H]3C1 [varenicline]
dopamine release (dopamine release [2]): increase dopamine release | D2/D3 receptor availability (D2/D3 receptor): increase D2/D3 receptor availability | motor functioning (Parkinson's models): improve motor functioning | antidepressant response (time spent immobile) in forced swim test (C57/BL6 mice): by themselves ineffective | dopamine release (dopamine release [3]): increase dopamine release

CCNC(=O)[C@H]1O[C@@H](n2cnc3c(N)nc(NCCc4ccc(CCC(=O)O)cc4)nc32)[C@H](O)[C@@H]1O [CGS 21680]
effect on affinity of the D2 receptor for the D2/D3 agonist quinpirole (D2 receptor): decreased the affinity

Nc1nc(NCCc2ccc(O)cc2)nc2nc(-c3ccco3)nn12 [ZM 241385]
effect on affinity of the D2 receptor for the D2/D3 agonist quinpirole (D2 receptor): increased the affinity
